From patent US5827871A, “Medicaments 1,2,3,4-tetrahydrocarbazoles and 5-HT1 agonist use thereof” (priority 1991, dated 1998)
Counter-ions that a name gives are not always drawn.

biological target: 5-HT1-like receptor (Canis lupus familiaris, UniProt P79250); assay: 5-HT1-like receptor screen, dog saphenous vein contraction; conditions: contraction of dog saphenous vein helicoids, 37° C., in presence of ketanserin, prazosin, atropine, mepyramine, cocaine and ascorbate; EC50 estimated from concentration-effect curve
Procedure: 5-HT1 -like Receptor Screen
Helicoids of dog saphenous vein were set up at 37° C. in modified Krebs solution at a resting force of 10 mN. The solution also contained 1 μmol/l each of ketanserin prazosin, atropine and mepyramine, 6 μmol/l cocaine and 200 μmol/l ascorbate. Nearly […] contractions were measured with force transducers on a polygraph. The tissues were exposed twice to 5-hydroxytryptamine (5-HT) 2 μmol/l followed by washes. A cumulative concentration-effect curve was determined, followed by a curve to 5-HT in the presence of the highest used concentration of test compound. Contractions caused by the test compound were compared with those caused by 5-HT. The intrinsic activity of the test compound was calculated as the ratio of the maximum test compound-induced effect over the effect caused by 2 μmol/l 5-HT. The EC50 of the test compound was estimated from the corresponding effect curve. When appropriate equilibrium dissociation constants Kp were estimated by the method of Marano & Kaumann (1976, J. Pharmacol. Exp. Ther. 198, 518-525).

5-HT1-like receptor (Canis lupus familiaris, UniProt P79250), sequence (P79250 whole entry): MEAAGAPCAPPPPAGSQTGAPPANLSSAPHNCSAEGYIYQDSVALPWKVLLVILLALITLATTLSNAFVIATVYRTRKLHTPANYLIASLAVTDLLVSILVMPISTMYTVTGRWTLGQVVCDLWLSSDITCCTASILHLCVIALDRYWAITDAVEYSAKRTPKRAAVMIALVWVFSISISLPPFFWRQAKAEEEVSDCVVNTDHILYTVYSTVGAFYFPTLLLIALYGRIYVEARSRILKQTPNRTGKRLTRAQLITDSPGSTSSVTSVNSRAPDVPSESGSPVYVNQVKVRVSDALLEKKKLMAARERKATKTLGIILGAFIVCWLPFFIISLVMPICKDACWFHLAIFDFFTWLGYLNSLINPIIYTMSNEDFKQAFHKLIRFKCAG

SMILES | EC50 [µM]
N#CCc1ccc2[nH]c3c(c2c1)CC(N)CC3 (stereo not shown) [Example 10, 3-Amino-6-cyanomethyl-1,2,3,4-tetrahydrocarbazole oxalate] | 0.1 to 15
CNS(=O)(=O)Cc1ccc2[nH]c3c(c2c1)CC(N)CC3 (stereo not shown) [Example 11, 3-Amino-6-(N-methylsulphonamidomethyl)-1,2,3,4-tetrahydrocarbazole oxalate] | 0.1 to 15
CC(=O)Nc1ccc2[nH]c3c(c2c1)CC(N)CC3 (stereo not shown) [Example 21, 3-Amino-6-(acetamido)-1,2,3,4-tetrahydrocarbazole oxalate] | 0.1 to 15
CNC1CCc2[nH]c3ccc(C(N)=O)cc3c2C1 (stereo not shown) [Example 24, 3-Methylamino-6-carboxamido-1,2,3,4-tetrahydrocarbazole hydrochloride] | 0.1 to 15

biological target: T1, 5-HT1-like receptor (Oryctolagus cuniculus, UniProt P49144); assay: 5-HT1-like receptor screen, rabbit isolated basilar artery contraction; conditions: isometric tension of endothelium-denuded rabbit basilar artery rings, in presence of ascorbate, indomethacin, cocaine, ketanserin and prazosin
T1 construct: from tissue; host or cells: rabbit basilar artery (endothelium-denuded ring segments)
Procedure: Experiments were performed in intracranial arteries from rabbit isolated basilar artery in a similar method to one described previously (Parsons and Whalley, 1989. Eur J Pharmacol 174, 189-196.).
In brief, rabbits were killed by overdose with anaesthetic (sodium pentobarbitone). The whole brain was quickly removed and immersed in ice cold modified Kreb's solution and the basilar artery removed with the aid of a dissecting microscope. The Krebs solution was of the following composition (mM) Na^+ (120); K^+ (5); Ca^2+ (2.25); Mg^2+ (0.5); Cl^- (98.5); SO4^2- (1); EDTA (0.04), equilibrated with 95% O2 /5% CO2. The endothelium was removed by a gentle rubbing of the lumen with a fine metal wire. Arteries were then cut into ring segments (ca 4-5 mm wide) and set up for recording of isometric tension in 50 ml tissue baths in modified Krebs solution with the additional supplement of (mM); […] (20); fumarate (10); pyruvate (5); L-glutamate (5) and glucose (10). The arteries were then placed under a resting force of 3-4 mN maintained at 37° C. and the solution bubbled with 95% O2 /5% CO2.
After tests for initial reactivity with 90 mM KCl depolarising solution and for lack of acetylcholine-induced relaxation of 5-HT ([…]) precontraction, cumulative concentration-effect curves ([…]) to 5-HT were constructed in the presence of ascorbate […], cocaine […], indomethacin […], ketanserin […] and prazosin […].
Following a 45-60 min wash period, cumulative concentration-effect curves to the test compounds or 5-HT (as a time match control) were constructed in the presence of ascorbate, indomethacin, cocaine, ketanserin and prazosin.

T1 sequence (P49144 whole entry): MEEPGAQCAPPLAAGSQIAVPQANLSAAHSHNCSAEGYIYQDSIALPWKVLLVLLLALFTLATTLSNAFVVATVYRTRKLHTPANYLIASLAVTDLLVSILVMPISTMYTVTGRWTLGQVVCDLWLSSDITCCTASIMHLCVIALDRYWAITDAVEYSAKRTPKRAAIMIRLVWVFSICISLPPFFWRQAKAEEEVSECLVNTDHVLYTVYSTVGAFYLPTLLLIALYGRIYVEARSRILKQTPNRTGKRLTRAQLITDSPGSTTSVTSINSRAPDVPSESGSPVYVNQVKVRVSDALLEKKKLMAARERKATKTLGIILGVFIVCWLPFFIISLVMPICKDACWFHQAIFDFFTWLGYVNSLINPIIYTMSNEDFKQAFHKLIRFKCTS

SMILES | EC50 [µM]
NC1CCc2[nH]c3ccc(S(N)(=O)=O)cc3c2C1 (stereo not shown) [Example 15, 3-Amino-6-sulphonamido-1,2,3,4-tetrahydrocarbazole oxalate] | 0.04 to 15
CNC1CCc2[nH]c3ccc(C(N)=O)cc3c2C1 (stereo not shown) [Example 24, 3-Methylamino-6-carboxamido-1,2,3,4-tetrahydrocarbazole hydrochloride] | 0.04 to 15
NC(=O)c1ccc2[nH]c3c(c2c1)CC(NCc1ccccc1)CC3 (stereo not shown) [Example 29, 3-Benzylamino-6-carboxamido-1,2,3,4-tetrahydrocarbazole oxalate] | 0.04 to 15
